Assay results as given in the NIST ThermoML archive (doi:10.1021/je060271a).

Settings: 303.15 K, Liquid, Vibrating tube method

CCCCC(=O)OCC(COC(=O)CCCC)(COC(=O)CCCC)COC(=O)CCCC [pentaerythritol tetrapentanoate]
Settings | mass density [kg/m3]
13763 kPa | 1019.6
13796 kPa | 1019.5
13829 kPa | 1019.6
13863 kPa | 1019.6
13902 kPa | 1019.7
13936 kPa | 1019.7
13971 kPa | 1019.7
14011 kPa | 1019.6
14045 kPa | 1019.6
14080 kPa | 1019.8
14120 kPa | 1019.8
14154 kPa | 1019.7
14189 kPa | 1019.8
14231 kPa | 1019.8
14265 kPa | 1019.9
14300 kPa | 1019.8
14344 kPa | 1019.8
14378 kPa | 1020
14414 kPa | 1019.9
14458 kPa | 1019.9
14494 kPa | 1020
14532 kPa | 1020
14574 kPa | 1020.1
14612 kPa | 1020.1
14649 kPa | 1020.1
14687 kPa | 1019.9
14731 kPa | 1020.2
14769 kPa | 1020.1
14808 kPa | 1020.2
14853 kPa | 1020.2
14892 kPa | 1020.2
14933 kPa | 1020.3
14974 kPa | 1020.3
15014 kPa | 1020.2
15058 kPa | 1020.3
15098 kPa | 1020.3
15146 kPa | 1020.4
15187 kPa | 1020.4
15226 kPa | 1020.4
15275 kPa | 1020.5
15316 kPa | 1020.3
15358 kPa | 1020.6
15400 kPa | 1020.5
15450 kPa | 1020.5
15495 kPa | 1020.6
15540 kPa | 1020.6
15586 kPa | 1020.7
15638 kPa | 1020.7
15671 kPa | 1020.6
15699 kPa | 1020.6
15733 kPa | 1020.9
15763 kPa | 1020.8
15791 kPa | 1020.7
15826 kPa | 1020.8
15856 kPa | 1020.8
15887 kPa | 1020.7
15921 kPa | 1020.8
15952 kPa | 1020.9
15981 kPa | 1021
16011 kPa | 1020.9
16047 kPa | 1020.9
16078 kPa | 1021.1
16109 kPa | 1021
16146 kPa | 1020.9
16177 kPa | 1021
16215 kPa | 1021
16248 kPa | 1021.1
16278 kPa | 1021
16303 kPa | 1021.1
16331 kPa | 1021.1
16354 kPa | 1021.1
16378 kPa | 1021
16406 kPa | 1021.2
16430 kPa | 1021
16454 kPa | 1021.3
16479 kPa | 1021.2
16508 kPa | 1021.2
16532 kPa | 1021.2
16556 kPa | 1021.2
16585 kPa | 1021.3
16610 kPa | 1021.3
16633 kPa | 1021.2
16663 kPa | 1021.4
16688 kPa | 1021.3
16712 kPa | 1021.3
16737 kPa | 1021.4
16765 kPa | 1021.3
16791 kPa | 1021.4
16815 kPa | 1021.3
16845 kPa | 1021.5
16869 kPa | 1021.5
16898 kPa | 1021.4
16924 kPa | 1021.4
16949 kPa | 1021.4
16980 kPa | 1021.5
17005 kPa | 1021.5
17032 kPa | 1021.6
17057 kPa | 1021.4
17088 kPa | 1021.6
17112 kPa | 1021.6
17144 kPa | 1021.6
17170 kPa | 1021.5
17196 kPa | 1021.7
17222 kPa | 1021.6
17253 kPa | 1021.6
17279 kPa | 1021.5
17310 kPa | 1021.7
17337 kPa | 1021.7
17364 kPa | 1021.7
17396 kPa | 1021.8
17422 kPa | 1021.8
17449 kPa | 1021.8
17476 kPa | 1021.8
17509 kPa | 1021.7
17535 kPa | 1021.7
17563 kPa | 1021.8
17596 kPa | 1021.8
17623 kPa | 1021.8
17656 kPa | 1022
17684 kPa | 1022
17713 kPa | 1021.9
17742 kPa | 1021.9
17771 kPa | 1021.9
17800 kPa | 1021.9
17834 kPa | 1021.9
17862 kPa | 1022
17892 kPa | 1022
17920 kPa | 1022
17954 kPa | 1022.1
17983 kPa | 1022.1
18012 kPa | 1022.1
18047 kPa | 1022.2
18076 kPa | 1022.1
18105 kPa | 1022.1
18142 kPa | 1022.1
18171 kPa | 1022.2
18200 kPa | 1022.2
18230 kPa | 1022.1
18265 kPa | 1022.3
18295 kPa | 1022.3
18325 kPa | 1022.2
18360 kPa | 1022.2
18390 kPa | 1022.2
18421 kPa | 1022.4
18457 kPa | 1022.4
18488 kPa | 1022.2
18520 kPa | 1022.4
18551 kPa | 1022.4
18587 kPa | 1022.4
18618 kPa | 1022.4
18650 kPa | 1022.6
18687 kPa | 1022.5
18717 kPa | 1022.5
18749 kPa | 1022.7
18787 kPa | 1022.6
18819 kPa | 1022.6
18850 kPa | 1022.5
18887 kPa | 1022.5
18919 kPa | 1022.7
18951 kPa | 1022.6
18990 kPa | 1022.6
19023 kPa | 1022.8
19056 kPa | 1022.6
19094 kPa | 1022.8
19127 kPa | 1022.7
19159 kPa | 1022.9
19198 kPa | 1022.9
19232 kPa | 1022.8
19265 kPa | 1022.8
19304 kPa | 1022.8
19338 kPa | 1022.9
19372 kPa | 1023
19412 kPa | 1022.9
19446 kPa | 1022.9
19480 kPa | 1023
19515 kPa | 1023
19556 kPa | 1023
19590 kPa | 1023.1
19630 kPa | 1023
19702 kPa | 1023.1
19736 kPa | 1023.1
19778 kPa | 1023.2
19813 kPa | 1023.2
19856 kPa | 1023.2
19893 kPa | 1023.1
19930 kPa | 1023.2
19968 kPa | 1023.2
20013 kPa | 1023.3
20051 kPa | 1023.4
20090 kPa | 1023.2
20134 kPa | 1023.3
20161 kPa | 1023.4
20186 kPa | 1023.3
20215 kPa | 1023.3
20240 kPa | 1023.4
20265 kPa | 1023.5
20290 kPa | 1023.6
20321 kPa | 1023.4
20346 kPa | 1023.4
20370 kPa | 1023.5
20396 kPa | 1023.5
20425 kPa | 1023.6
20451 kPa | 1023.5
20481 kPa | 1023.6
20506 kPa | 1023.5
20532 kPa | 1023.6
20561 kPa | 1023.6
20587 kPa | 1023.6
20613 kPa | 1023.7
20644 kPa | 1023.6
20671 kPa | 1023.6
20697 kPa | 1023.6
20723 kPa | 1023.7
20754 kPa | 1023.6
20780 kPa | 1023.7
20806 kPa | 1023.8
20837 kPa | 1023.8
20864 kPa | 1023.9
20890 kPa | 1023.7
20920 kPa | 1023.8
20947 kPa | 1023.7
20974 kPa | 1023.8
21007 kPa | 1023.7
21030 kPa | 1023.9
21062 kPa | 1023.9
21089 kPa | 1023.8
21122 kPa | 1023.8
21149 kPa | 1023.9
21176 kPa | 1024
21208 kPa | 1024
21236 kPa | 1024
21263 kPa | 1023.8
21291 kPa | 1024
21324 kPa | 1024.1
21351 kPa | 1024.1
21384 kPa | 1024.1
21412 kPa | 1024
21440 kPa | 1024.1
21472 kPa | 1024.1
21500 kPa | 1024.2
21528 kPa | 1024.1
21557 kPa | 1024.1
21593 kPa | 1024.2
21622 kPa | 1024.2
21658 kPa | 1024.3
21688 kPa | 1024.2
21718 kPa | 1024.4
21754 kPa | 1024.3
21784 kPa | 1024.2
21814 kPa | 1024.3
21844 kPa | 1024.4
21881 kPa | 1024.2
21911 kPa | 1024.4
21942 kPa | 1024.4
21979 kPa | 1024.4
22009 kPa | 1024.5
22046 kPa | 1024.4
22077 kPa | 1024.5
22109 kPa | 1024.4
22140 kPa | 1024.5
22178 kPa | 1024.5
22210 kPa | 1024.6
22242 kPa | 1024.6
22279 kPa | 1024.6
22311 kPa | 1024.6
22343 kPa | 1024.7
22375 kPa | 1024.6
22414 kPa | 1024.6
22446 kPa | 1024.6
22478 kPa | 1024.6
22517 kPa | 1024.7
22550 kPa | 1024.8
22583 kPa | 1024.7
22622 kPa | 1024.8
22656 kPa | 1024.7
22688 kPa | 1024.7
22722 kPa | 1024.8
22761 kPa | 1024.8
22794 kPa | 1024.9
22828 kPa | 1024.9
22868 kPa | 1024.9
22901 kPa | 1024.9
22942 kPa | 1024.9
22975 kPa | 1024.9
23009 kPa | 1024.9
23043 kPa | 1025.1
23084 kPa | 1025
23119 kPa | 1025.1
23154 kPa | 1025
23195 kPa | 1025
23230 kPa | 1025.1
23265 kPa | 1025.2
23307 kPa | 1025.2
23342 kPa | 1025.2
23378 kPa | 1025.2
23413 kPa | 1025.2
23456 kPa | 1025.2
23492 kPa | 1025.3
23534 kPa | 1025.2
23572 kPa | 1025.1
23609 kPa | 1025.3
23646 kPa | 1025.4
23680 kPa | 1025.3
23726 kPa | 1025.4
23761 kPa | 1025.5
23798 kPa | 1025.6
23843 kPa | 1025.5
23878 kPa | 1025.4
23926 kPa | 1025.5
23961 kPa | 1025.6
23996 kPa | 1025.5
24033 kPa | 1025.7
24084 kPa | 1025.5
24123 kPa | 1025.6
24162 kPa | 1025.7
24202 kPa | 1025.6
24250 kPa | 1025.7
24285 kPa | 1025.8
24316 kPa | 1025.7
24353 kPa | 1025.8
24383 kPa | 1025.8
